Here are results for five molecules from patent US20210196702A1, “TREATMENT OF HYPERKINETIC MOVEMENT DISORDERS” (Neurocrine Biosciences, Inc., priority 2014, published 2021).

Like-named read-outs stand apart in the source and are kept apart here.

As a reminder, the Cmax is the maximum level reached in the sampled fluid or tissue. One may read the Tmax as the time at which the peak concentration occurs.

For data set [1] the following is noted: cited from earlier work.
Data set [2] deals with TD subjects. The experiment in a line: Phase 2 clinical study of NBI-98854: exposure-AIMS (video-rated) analysis. Format: in vivo, human. Conditions: for Mean AIMS reduction - % (week 6 vs baseline): regardless of NBI-98854 dose. The source says: Methods for determining the effectiveness of a therapeutic for treating a hyperkinetic disorder are routinely practiced in the art by a person skilled in the medical and clinical arts. By way of example, a subject with a hyperkinetic disorder may be diagnosed, monitored, and evaluated by the Abnormal Involuntary Movement Scale (AIMS). The AIMS is a structured neurological examination that was developed in 1976 and has been used extensively in movement disorder assessments. It consists of seven distinct ratings of regional involuntary body movements that are scored on a zero to four scale with zero being rated as none and four being rated as severe.
(§1) Observed exposure and Abnormal Involuntary Movement Scale (AIMS) derived from video ratings from a Phase 2 clinical study of (S)-2-amino-3-methyl-butyric acid (2R,3R,11bR)-3-isobutyl-9,10-dimethoxy-1,3,4,6,7,11b-hexahydro-2H-pyrido[2,1-a]isoquinolin-2-yl ester were employed for development of the exposure-response relationship. A total of […] were randomized to placebo (N=41) and (S)-2-amino-3-methyl-butyric acid (2R,3R,11bR)-3-isobutyl-9,10-dimethoxy-1,3,4,6,7,11b-hexahydro-2H-pyrido[2,1-a]isoquinolin-2-yl ester (either 25 mg, 50 mg or 75 mg, N=45). Thirty-eight patients receiving (S)-2-amino-3-methyl-butyric acid (2R,3R,11bR)-3-isobutyl-9,10-dimethoxy-1,3,4,6,7,11b-hexahydro-2H-pyrido[2,1-a]isoquinolin-2-yl ester had PK data available for the metabolite [+]α-dihydrotetrabenazine. […] AIMS derived from video rating was available at baseline and week 6 in each patient. Percent change from baseline at week 6 served as the response metric. [+]α-Dihydrotetrabenazine concentration at week 6 sampled at about the Tmax was available in each patient and this Cmax steady state (ss) was used as the exposure measure.
(§2) The patients who had quantifiable concentrations of [+]α-dihydrotetrabenazine were divided into quartiles based upon the week 6 Cmax ss. The mean Cmax ss and mean AIMS reduction from baseline were calculated for each quartile.

Data set [3] deals with TD subjects. The data set can be described thus: Tolerability of repeated doses in TD subjects. The class given is in vivo, human. Conditions: repeated doses from 12.5 mg to 100 mg per day. The procedure: Efficacy is related to the concentrations of the active metabolite [+]α-dihydrotetrabenazine. […] Exposures above 60 ng/mL in plasma afford little incremental benefit but increase the risk of adverse events reflecting extension of VMAT2 pharmacology. Exposures below 15 ng/mL are suboptimal across the general TD population.

The next data set concerns patients exposed to drug. Conditions: patients exposed to metoclopramide (Rao et al 2010); cited from earlier work.
A short description of data set [4]: Phase 2 clinical study: week 6 plasma concentration (Cmax ss) of [+]α-HTBZ. Format: in vivo. Conditions: human, NBI-98854 25, 50 or 75 mg, TD patients.
Source text: (§3) Plasma concentrations of (+)α-HTBZ, (+)β-HTBZ, and compounds as disclosed herein may be measured by methods as described in Derangula et al, Biomedical Chromatography 2013 27(6): 792-801, Mehvar et al, […] 1987 15(2): 250-55 and generally by tandem mass spectroscopy.
as §1, §2

Data set [5] in a line: NBI-98854 multiple-dose cohort: plasma (+)α-HTBZ on day 8. The class given is in vivo, human. The note with it: for half-life: read-out: apparent ti (half-life) of plasma concentration decline (converted). The procedure:
as §3
NBI-98854 was administered orally once daily at a dose of 50 mg or 100 mg for 8 days to patients in a multiple-dose cohort (n=13 for 50 mg dosage group; n=4 for 100 mg dosage group). Individual subject plasma concentration data for (+)α-HTBZ was collected at scheduled times post-dose (0 hr, 2 hr, 4 hr, 6 hr, 8 hr, 12 hr, 16 hr, 24 hr, 48 hr, 96 hr, and 120 hr) on day 8 and presented as mean plasma concentration data (linear scale) (see, FIG. 1). On Day 8, median time to Tmax for (+)α-HTBZ was approximately 4.0 hours for both doses.

Setting [6] is: active metabolite after NBI-98854, TD population.

In the case of `COc1cc2c(cc1OC)C1CC(O)C(CC(C)C)CN1CC2` (centres unmarked) [HTBZ, 3-isobutyl-9,10-dimethoxy-1,3,4,6,7,11b-hexahydro-2H-pyrido[2,1-a]isoquinolin-2-ol], in data set [1] (HTBZ formed from tetrabenazine in humans), the half-life entry was “short”.
For the molecule `COc1cc2c(cc1OC)[C@H]1C[C@@H](OC(=O)[C@@H](N)C(C)C)[C@H](CC(C)C)CN1CC2` [NBI-98854, (S)-2-amino-3-methyl-butyric acid (2R,3R,11bR)-3-isobutyl-9,10-dimethoxy-1,3,4,6,7,11b-hexahydro-2H-pyrido[2,1-a]isoquinolin-2-yl ester], the “Mean AIMS reduction - % (week 6 vs baseline)” value in the data set with TD subjects [2] (3rd quartile of [+]α-HTBZ Cmax ss) is reported as 65%; in the data set on TD subjects [2] (4th quartile of [+]α-HTBZ Cmax ss) it was 52%. The Tolerability result in the data set on TD subjects [3] was “generally well tolerated”.
On to `CCN(CC)CCNC(=O)c1cc(Cl)c(N)cc1OC` [metoclopramide], for which the “Occurrence of drug-induced TD in patients exposed to drug” value with patients exposed to drug is listed as under 1%.
Consider `COc1cc2c(cc1OC)[C@H]1C[C@@H](O)[C@H](CC(C)C)CN1CC2` [(+)α-HTBZ, (2R, 3R, 11bR)-3-isobutyl-9,10-dimethoxy-1,3,4,6,7,11b-hexahydro-2H-pyrido[2,1-a]isoquinolin-2-ol], for which the Cmax in data set [4] (1st quartile by week 6 Cmax ss) was about 15 ng/mL; in data set [4] (2nd quartile by week 6 Cmax ss), about 29 ng/mL; in data set [4] (3rd quartile by week 6 Cmax ss), 42 ng/mL; in data set [4] (4th quartile by week 6 Cmax ss) it was 93 ng/mL. In addition, in the data set with TD subjects [2] (setting [6]), the “Appropriate target concentration in plasma (exposure-response analysis)” value was determined as 30 ng/mL. Further, in the data set with TD subjects [2] (setting [6]), the “Plasma exposures affording little incremental benefit but increased risk of adverse events” value is given as “above 60 ng/mL”. Besides, the “Plasma exposures that are suboptimal across the general TD population” value in the data set on TD subjects [2] (setting [6]) is “below 15 ng/mL”. For the same molecule, in data set [5] (NBI-98854 50 mg once daily, over a period of about 8 to about 24 hours), the “Plasma concentration maintained above threshold” value was over 15 ng/mL. In addition, the half-life in data set [5] (human, plasma, po, NBI-98854 50 mg orally once daily) was about 21 h; in data set [5] (human, plasma, po, NBI-98854 100 mg orally once daily), about 19 h. In addition, the Tmax in data set [5] (human, plasma, po, NBI-98854 orally once daily, both doses (50 mg and 100 mg), read-out: median time to Tmax) was about 4 h.
`COc1cc2c(cc1OC)C1CC(=O)C(CC(C)C)CN1CC2` (centres unmarked) [tetrabenazine, 3-isobutyl-9,10-dimethoxy-1,3,4,6,7,11b-hexahydro-2H-pyrido[2,1-a]isoquinolin-2-one]: in data set [1] (in humans, rapidly metabolized to HTBZ), the “Systemic exposure to parent drug” value is “virtually negligible”.
